Where “and” joins values, the source holds several entries; their conditions need not be identical. Equal entries are not always repeated. Inconclusive results and toxic doses are left out.
System: CD2F1 mice, L1210 leukemia ip, survival T/C
Test: NCI In Vivo Anticancer Drug Screen. Data for tumor model L1210 Leukemia (intraperitoneal) in CD2F1 (CDF1) mice
Conditions: higher = longer survival
Method in brief: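 Compound-dosed mice with transplantable tumor versus matched vehicle controls; endpoint ratio T/C reported.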

C[n+]1ccccc1/C=C/c1ccccn1
T/C (endpoint: mean survival time, dose: 5.3 mg/kg/injection, schedule: Q01DX009 (ip), vehicle: saline with Tween-80): 97 % of control | T/C (endpoint: mean survival time, dose: 6.25 mg/kg/injection, schedule: Q04DX003 (ip), vehicle: saline): 95 % of control | T/C (endpoint: mean survival time, dose: 8.0 mg/kg/injection, schedule: Q01DX009 (ip), vehicle: saline with Tween-80): 100 % of control | T/C (endpoint: mean survival time, dose: 12.0 mg/kg/injection, schedule: Q01DX009 (ip), vehicle: saline with Tween-80): 100 % of control | T/C (endpoint: mean survival time, dose: 12.5 mg/kg/injection, schedule: Q04DX003 (ip), vehicle: saline): 98 % of control | T/C (endpoint: mean survival time, dose: 18.0 mg/kg/injection, schedule: Q01DX009 (ip), vehicle: saline with Tween-80): 92 % of control | T/C (endpoint: mean survival time, dose: 25.0 mg/kg/injection, schedule: Q04DX003 (ip), vehicle: saline): 92 % of control

CN1N=C(N)c2cn(C3OC(COP(=O)(O)O)C(O)C3O)c3ncnc1c23 (stereo not drawn)
T/C (endpoint: mean survival time, dose: 6.25 mg/kg/injection, schedule: Q01DX009 (ip), vehicle: water): 123 % of control | T/C (endpoint: mean survival time, dose: 7.81 mg/kg/injection, schedule: Q01DX005 (iv), vehicle: water): 109 % of control | T/C (endpoint: mean survival time, dose: 10.0 mg/kg/injection, schedule: Q01DX005 (ip), vehicle: water): 150 % of control | T/C (endpoint: mean survival time, dose: 11.73 mg/kg/injection, schedule: Q01DX005 (iv), vehicle: water): 112 % of control | T/C (endpoint: mean survival time, dose: 12.5 mg/kg/injection, schedule: Q01DX009 (ip), vehicle: water): 155 % of control | T/C (endpoint: mean survival time, dose: 15.63 mg/kg/injection, schedule: Q01DX005 (iv), vehicle: water): 114 % of control | T/C (endpoint: mean survival time, dose: 20.0 mg/kg/injection, schedule: Q01DX005 (ip), vehicle: water): 152 % of control | T/C (endpoint: mean survival time, dose: 23.45 mg/kg/injection, schedule: Q01DX005 (iv), vehicle: water): 119 % of control | T/C (endpoint: mean survival time, dose: 23.45 mg/kg/injection, schedule: Q01DX009 (ip), vehicle: water): 153 % of control | T/C (endpoint: mean survival time, dose: 31.25 mg/kg/injection, schedule: Q01DX009 (ip), vehicle: water): 159 % of control | T/C (endpoint: mean survival time, dose: 40.0 mg/kg/injection, schedule: Q01DX005 (ip), vehicle: water): 157 % of control and 163 % of control | T/C (endpoint: mean survival time, dose: 46.9 mg/kg/injection, schedule: Q01DX005 (iv), vehicle: water): 151 % of control | T/C (endpoint: mean survival time, dose: 46.9 mg/kg/injection, schedule: Q01DX009 (ip), vehicle: water): 156 % of control and 174 % of control | T/C (endpoint: mean survival time, dose: 62.5 mg/kg/injection, schedule: Q01DX005 (iv), vehicle: water): 157 % of control | T/C (endpoint: mean survival time, dose: 62.5 mg/kg/injection, schedule: Q01DX009 (ip), vehicle: water): 161 % of control | T/C (endpoint: mean survival time, dose: 80.0 mg/kg/injection, schedule: Q01DX005 (ip), vehicle: water): 163 % of control and 195 % of control | T/C (endpoint: median survival time, dose: 6.25 mg/kg/injection, schedule: Q03HX024 (ip), vehicle: alkali diluted with water): 156 % of control | T/C (endpoint: median survival time, dose: 12.5 mg/kg/injection, schedule: Q03HX024 (ip), vehicle: alkali diluted with water): 97 % of control | T/C (endpoint: median survival time, dose: 24.0 mg/kg/injection, schedule: Q01DX005 (ip), vehicle: water): 150 % of control | T/C (endpoint: median survival time, dose: 24.0 mg/kg/injection, schedule: Q01DX009 (ip), vehicle: water): 157 % of control | T/C (endpoint: median survival time, dose: 25.0 mg/kg/injection, schedule: Q01DX001 (ip), vehicle: alkali diluted with water): 97 % of control | T/C (endpoint: median survival time, dose: 25.0 mg/kg/injection, schedule: Q01DX009 (ip), vehicle: alkali diluted with water): 168 % of control | T/C (endpoint: median survival time, dose: 25.0 mg/kg/injection, schedule: Q04DX003 (ip), vehicle: alkali diluted with water): 151 % of control | T/C (endpoint: median survival time, dose: 35.0 mg/kg/injection, schedule: Q01DX001 (ip), vehicle: water): 120 % of control | T/C (endpoint: median survival time, dose: 35.0 mg/kg/injection, schedule: Q01DX005 (oral), vehicle: water): 95 % of control | T/C (endpoint: median survival time, dose: 35.0 mg/kg/injection, schedule: Q01DX009 (ip), vehicle: water): 167 % of control | T/C (endpoint: median survival time, dose: 35.0 mg/kg/injection, schedule: Q01DX009 (oral), vehicle: water): 108 % of control | T/C (endpoint: median survival time, dose: 50.0 mg/kg/injection, schedule: Q01DX001 (ip), vehicle: alkali diluted with water): 96 % of control | T/C (endpoint: median survival time, dose: 50.0 mg/kg/injection, schedule: Q01DX009 (ip), vehicle: alkali diluted with water): 187 % of control | T/C (endpoint: median survival time, dose: 50.0 mg/kg/injection, schedule: Q04DX003 (ip), vehicle: alkali diluted with water): 151 % of control | T/C (endpoint: median survival time, dose: 53.0 mg/kg/injection, schedule: Q01DX001 (ip), vehicle: water): 112 % of control | T/C (endpoint: median survival time, dose: 53.0 mg/kg/injection, schedule: Q01DX001 (oral), vehicle: water): 105 % of control | T/C (endpoint: median survival time, dose: 53.0 mg/kg/injection, schedule: Q01DX005 (iv), vehicle: water): 155 % of control | T/C (endpoint: median survival time, dose: 53.0 mg/kg/injection, schedule: Q01DX005 (oral), vehicle: water): 101 % of control | T/C (endpoint: median survival time, dose: 53.0 mg/kg/injection, schedule: Q01DX009 (ip), vehicle: water): 182 % of control | T/C (endpoint: median survival time, dose: 53.0 mg/kg/injection, schedule: Q01DX009 (oral), vehicle: water): 101 % of control | T/C (endpoint: median survival time, dose: 80.0 mg/kg/injection, schedule: Q01DX001 (oral), vehicle: water): 103 % of control | T/C (endpoint: median survival time, dose: 80.0 mg/kg/injection, schedule: Q01DX005 (ip), vehicle: water): 155 % of control | T/C (endpoint: median survival time, dose: 80.0 mg/kg/injection, schedule: Q01DX005 (iv), vehicle: water): 158 % of control | T/C (endpoint: median survival time, dose: 80.0 mg/kg/injection, schedule: Q01DX005 (oral), vehicle: water): 102 % of control | T/C (endpoint: median survival time, dose: 80.0 mg/kg/injection, schedule: Q01DX009 (ip), vehicle: water): 185 % of control | T/C (endpoint: median survival time, dose: 80.0 mg/kg/injection, schedule: Q01DX009 (oral), vehicle: water): 106 % of control | T/C (endpoint: median survival time, dose: 100.0 mg/kg/injection, schedule: Q01DX001 (ip), vehicle: alkali diluted with water): 96 % of control | T/C (endpoint: median survival time, dose: 100.0 mg/kg/injection, schedule: Q01DX009 (ip), vehicle: alkali diluted with water): 200 % of control | T/C (endpoint: median survival time, dose: 100.0 mg/kg/injection, schedule: Q01DX009 (oral), vehicle: alkali diluted with water): 104 % of control | T/C (endpoint: median survival time, dose: 100.0 mg/kg/injection, schedule: Q04DX003 (ip), vehicle: alkali diluted with water): 162 % of control | T/C (endpoint: median survival time, dose: 120.0 mg/kg/injection, schedule: Q01DX001 (oral), vehicle: water): 105 % of control | T/C (endpoint: median survival time, dose: 120.0 mg/kg/injection, schedule: Q01DX005 (ip), vehicle: water): 161 % of control | T/C (endpoint: median survival time, dose: 120.0 mg/kg/injection, schedule: Q01DX005 (oral), vehicle: water): 105 % of control | T/C (endpoint: median survival time, dose: 120.0 mg/kg/injection, schedule: Q01DX009 (ip), vehicle: water): 150 % of control | T/C (endpoint: median survival time, dose: 120.0 mg/kg/injection, schedule: Q01DX009 (oral), vehicle: water): 103 % of control | T/C (endpoint: median survival time, dose: 180.0 mg/kg/injection, schedule: Q01DX001 (oral), vehicle: water): 101 % of control | T/C (endpoint: median survival time, dose: 180.0 mg/kg/injection, schedule: Q01DX005 (oral), vehicle: water): 107 % of control | T/C (endpoint: median survival time, dose: 180.0 mg/kg/injection, schedule: Q01DX009 (oral), vehicle: water): 102 % of control | T/C (endpoint: median survival time, dose: 200.0 mg/kg/injection, schedule: Q01DX009 (oral), vehicle: alkali diluted with water): 103 % of control | T/C (endpoint: median survival time, dose: 200.0 mg/kg/injection, schedule: Q04DX003 (ip), vehicle: alkali diluted with water): 150 % of control | T/C (endpoint: median survival time, dose: 270.0 mg/kg/injection, schedule: Q01DX001 (oral), vehicle: water): 101 % of control | T/C (endpoint: median survival time, dose: 270.0 mg/kg/injection, schedule: Q01DX005 (oral), vehicle: water): 110 % of control | T/C (endpoint: median survival time, dose: 270.0 mg/kg/injection, schedule: Q01DX009 (oral), vehicle: water): 112 % of control | T/C (endpoint: median survival time, dose: 400.0 mg/kg/injection, schedule: Q01DX009 (oral), vehicle: alkali diluted with water): 114 % of control | T/C (endpoint: median survival time, dose: 405.0 mg/kg/injection, schedule: Q01DX001 (oral), vehicle: water): 102 % of control | T/C (endpoint: median survival time, dose: 800.0 mg/kg/injection, schedule: Q01DX009 (oral), vehicle: alkali diluted with water): 120 % of control | T/C (endpoint: median survival time, dose: 1600.0 mg/kg/injection, schedule: Q01DX009 (oral), vehicle: alkali diluted with water): 122 % of control

CCOC(=O)C(=C=C(C(=O)OCC)C(=O)OCC)C(=O)OCC
T/C (endpoint: mean survival time, dose: 25.0 mg/kg/injection, schedule: Q01DX005 (ip), vehicle: saline with Tween-80): 97 % of control | T/C (endpoint: mean survival time, dose: 25.0 mg/kg/injection, schedule: Q01DX009 (ip), vehicle: saline with Tween-80): 95 % of control | T/C (endpoint: mean survival time, dose: 25.0 mg/kg/injection, schedule: Q04DX002 (ip), vehicle: saline with Tween-80): 103 % of control | T/C (endpoint: mean survival time, dose: 50.0 mg/kg/injection, schedule: Q01DX005 (ip), vehicle: saline with Tween-80): 92 % of control and 97 % of control | T/C (endpoint: mean survival time, dose: 50.0 mg/kg/injection, schedule: Q01DX009 (ip), vehicle: saline with Tween-80): 98 % of control | T/C (endpoint: mean survival time, dose: 50.0 mg/kg/injection, schedule: Q04DX002 (ip), vehicle: saline with Tween-80): 88 % of control and 106 % of control | T/C (endpoint: mean survival time, dose: 100.0 mg/kg/injection, schedule: Q01DX005 (ip), vehicle: saline with Tween-80): 94 % of control | T/C (endpoint: mean survival time, dose: 100.0 mg/kg/injection, schedule: Q01DX009 (ip), vehicle: saline with Tween-80): 95 % of control | T/C (endpoint: mean survival time, dose: 100.0 mg/kg/injection, schedule: Q04DX002 (ip), vehicle: saline with Tween-80): 103 % of control and 106 % of control | T/C (endpoint: mean survival time, dose: 200.0 mg/kg/injection, schedule: Q01DX005 (ip), vehicle: saline with Tween-80): 86 % of control and 94 % of control | T/C (endpoint: mean survival time, dose: 200.0 mg/kg/injection, schedule: Q01DX009 (ip), vehicle: saline with Tween-80): 91 % of control | T/C (endpoint: mean survival time, dose: 200.0 mg/kg/injection, schedule: Q04DX002 (ip), vehicle: saline with Tween-80): 95 % of control and 98 % of control | T/C (endpoint: mean survival time, dose: 400.0 mg/kg/injection, schedule: Q04DX002 (ip), vehicle: saline with Tween-80): 98 % of control
